Converted amounts (≈) assume the structure as drawn. Like-named read-outs stand apart in the source and are kept apart here. Positions of bridges follow the written chain, without caps; N, C: chain ends. Non-standard residues stand in square brackets, D forms with d. Residues, ends and D or L forms follow the SMILES beside them. Lys(N3) = [N-]=[N+]=NCCCC[C@H](N)C(=O)O; R8 = C=CCCCCCC[C@@](C)(N)C(=O)O; Cba = N[C@@H](CC1CCC1)C(=O)O; S5 = C=CCCC[C@](C)(N)C(=O)O; Ahx = NCCCCCC(=O)O; βAla = NCCC(=O)O
Columns and labels:
[1] = Nanoclick permeability assay
How it was run: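 Azido-peptide permeability was read as loss of NanoBRET signal (donor 450 nm, acceptor 610 nm) after adding NanoBret618-azide at 10 μM final.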

[2] = Experimental LogD (partition coefficient); settings: for logD: not stated, Partition Coeff LogD
[3] = Solubility assay (kinetic solubility, PBS pH 7); assay type: physicochemical; settings: for solubility kinetic: pH 7, aqueous buffer, kinetic from dmso stock, read-out: Solubility
How it was run: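 Next, measure peak areas of sample and standard. Finally, multiply their ratio by the standard concentration to obtain solubility (µM).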

[4] = Lactate dehydrogenase (LDH) release assay; assay type: cell-based
How it was run: (§1)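 LDH release, fluorometric membrane-integrity read-out; HCT116 with stable p53-responsive β-lactamase reporter; 8000 cells/well; 0.5% DMSO final; geometric mean, n≥3 biological replicates.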

HCT116 cells = assay: Lactate dehydrogenase (LDH) release assay; assay type: cell-based
How it was run: as §1

[5] = 0% FBS 4Hr, read-out: LDH: Cytotoxicity assay EC50
[6] = 10% FBS 4Hr, read-out: LDH: Cytotoxicity assay EC50

Compound	cell entry EC50 [1]	EPSA (physchem)	logD [2]	solubility kinetic ([3]; pH 7, PBS)	EC50 [4, 5]	LDH: Cytotoxicity assay % Effect (HCT116 cells; 0% FBS 4Hr)	LDH: Cytotoxicity assay % Effect (HCT116 cells; 0% FBS 16Hr)	EC50 ([4]; 4 hours, 0% serum, read-out: LDH Cytotoxicity assay EC50)	Partition Coeff LogD [2]	Partition Coeff LogD ([2]; experimental)	Solubility [3]	Solubility ([3]; pH 7, PBS)	EC50 [4, 6]	LDH: Cytotoxicity assay % Effect (HCT116 cells; 10% FBS 4Hr)	cell entry EC50 ([1]; Nanoclick permeability assay EC50)	EC50 ([4]; LDH: Cytotoxicity assay EC50)	LDH: Cytotoxicity assay % Effect (HCT116 cells)
CC(=O)N[C@@H](CCCCN=[N+]=[N-])C(=O)NCCC(=O)N[C@@H](CCCCN)C(=O)N[C@H](C(=O)N[C@@H](Cc1ccccc1)C(=O)N[C@]1(C)CCCCCCC=CCCC[C@@](C)(C(=O)N[C@@H](CO)C(=O)N[C@@H](C)C(=O)N[C@@H](C)C(N)=O)NC(=O)[C@H](CC2CCC2)NC(=O)[C@H](CCC(N)=O)NC(=O)[C@H](C)NC(=O)[C@H](Cc2c[nH]c3ccccc23)NC(=O)[C@H](Cc2ccc(O)cc2)NC(=O)[C@H](CCC(=O)O)NC1=O)[C@@H](C)O [MP-546, AZIDE-ATSP-7041 (L1K)]	210 nM	229 A^2	2.85	2 µM (≈ 3.97 µg/mL)	> 50000 nM	34.42%	13.56%										
CC(=O)N[C@@H](CCCCN=[N+]=[N-])C(=O)NCCC(=O)N[C@@H](C)C(=O)N[C@H](C(=O)N[C@@H](Cc1ccccc1)C(=O)N[C@]1(C)CCCCCCC=CCCC[C@@](C)(C(=O)N[C@@H](CO)C(=O)N[C@@H](C)C(=O)N[C@@H](C)C(N)=O)NC(=O)[C@H](CC2CCC2)NC(=O)[C@H](CCC(N)=O)NC(=O)[C@H](C)NC(=O)[C@H](Cc2c[nH]c3ccccc23)NC(=O)[C@H](Cc2ccc(O)cc2)NC(=O)[C@H](CCC(=O)O)NC1=O)[C@@H](C)O [MP-952, AZIDE-ATSP-7041 (L1A)]	192 nM	223 A^2	2.73	109 µM (≈ 210 µg/mL)	> 50000 nM	11.9%	8.95%										
CC(=O)N[C@@H](CCCCN=[N+]=[N-])C(=O)NCCC(=O)N[C@@H](CC(C)C)C(=O)N[C@H](C(=O)N[C@@H](Cc1ccccc1)C(=O)N[C@]1(C)CCCCCCC=CCCC[C@@](C)(C(=O)N[C@@H](CO)C(=O)N[C@@H](C)C(=O)N[C@@H](C)C(N)=O)NC(=O)[C@H](CC2CCC2)NC(=O)[C@H](CCC(N)=O)NC(=O)[C@H](C)NC(=O)[C@H](Cc2c[nH]c3ccccc23)NC(=O)[C@H](Cc2ccc(O)cc2)NC(=O)[C@H](CCCCN)NC1=O)[C@@H](C)O [MP-548, AZIDE-ATSP-7041 (E5K)]	1020 nM	213 A^2	3.25	5 µM (≈ 9.85 µg/mL)	12300 nM	84.33%	14.03%	12200 nM									
CC(=O)N[C@@H](CCCCN=[N+]=[N-])C(=O)NCCC(=O)N[C@@H](CC(C)C)C(=O)N[C@@H](CCCCN)C(=O)N[C@@H](Cc1ccccc1)C(=O)N[C@]1(C)CCCCCCC=CCCC[C@@](C)(C(=O)N[C@@H](CO)C(=O)N[C@@H](C)C(=O)N[C@@H](C)C(N)=O)NC(=O)[C@H](CC2CCC2)NC(=O)[C@H](CCC(N)=O)NC(=O)[C@H](C)NC(=O)[C@H](Cc2c[nH]c3ccccc23)NC(=O)[C@H](Cc2ccc(O)cc2)NC(=O)[C@H](CCC(=O)O)NC1=O [MP-547, AZIDE-ATSP-7041 (T2K)]	72.2 nM	229 A^2	3.02	3 µM (≈ 5.99 µg/mL)	> 50000 nM	26.9%	15.73%										
CC(=O)N[C@@H](CCCCN=[N+]=[N-])C(=O)NCCC(=O)N[C@@H](CC(C)C)C(=O)N[C@H](C(=O)N[C@@H](Cc1ccccc1)C(=O)N[C@]1(C)CCCCCCC=CCCC[C@@](C)(C(=O)N[C@@H](CO)C(=O)N[C@@H](C)C(=O)N[C@@H](C)C(N)=O)NC(=O)[C@H](CC2CCC2)NC(=O)[C@H](Cc2c[nH]cn2)NC(=O)[C@H](C)NC(=O)[C@H](Cc2c[nH]c3ccccc23)NC(=O)[C@H](Cc2ccc(O)cc2)NC(=O)[C@H](CCC(=O)O)NC1=O)[C@@H](C)O [MP-176, AZIDE-ATSP-7041 (Q9H)]	396 nM	222 A^2	2.88	2 µM (≈ 3.96 µg/mL)	> 50000 nM	5.39%	4.02%										
CC(=O)N[C@@H](CCCCN=[N+]=[N-])C(=O)NCCC(=O)N[C@@H](CC(C)C)C(=O)N[C@H](C(=O)N[C@@H](Cc1ccccc1)C(=O)N[C@]1(C)CCCCCCC=CCCC[C@@](C)(C(=O)N[C@@H](CO)C(=O)N[C@@H](C)C(=O)N[C@@H](C)C(N)=O)NC(=O)[C@H](CC2CCC2)NC(=O)[C@H](CCC(N)=O)NC(=O)[C@H](C)NC(=O)[C@H](Cc2c[nH]c3ccccc23)NC(=O)[C@H](Cc2ccc(O)cc2)NC(=O)[C@H](C)NC1=O)[C@@H](C)O [MP-954, AZIDE-ATSP-7041 (E5A)] (Ac-[Lys(N3)][βAla]LTF[R8]AYWAQ[Cba][S5]SAA-NH2; staple 6-13)	217 nM	205 A^2			> 50000 nM	9.323%	-0.76%		Poorly Behaved	P.B.	P.B.	Poorly Behaved	> 50000 nM	15.23%			
CC(=O)N[C@@H](CCCCN=[N+]=[N-])C(=O)NCCC(=O)N[C@@H](CC(C)C)C(=O)N[C@H](C(=O)N[C@@H](Cc1ccccc1)C(=O)N[C@]1(C)CCCCCCC=CCCC[C@@](C)(C(=O)N[C@@H](CO)C(=O)N[C@@H](C)C(=O)N[C@@H](C)C(N)=O)NC(=O)[C@H](CC2CCC2)NC(=O)[C@H](C)NC(=O)[C@H](C)NC(=O)[C@H](Cc2c[nH]c3ccccc23)NC(=O)[C@H](Cc2ccc(O)cc2)NC(=O)[C@H](CCC(=O)O)NC1=O)[C@@H](C)O [MP-955, AZIDE-ATSP-7041 (Q9A)] (Ac-[Lys(N3)][βAla]LTF[R8]EYWAA[Cba][S5]SAA-NH2; staple 6-13)	582 nM	215 A^2	2.94	86.5 µM (≈ 165 µg/mL)	> 50000 nM	21.34%							> 50000 nM	-4.376%			
CC(=O)N[C@@H](CCCCN=[N+]=[N-])C(=O)NCCC(=O)N[C@@H](CC(C)C)C(=O)N[C@H](C(=O)N[C@@H](Cc1ccccc1)C(=O)N[C@]1(C)CCCCCCC=CCCC[C@@](C)(C(=O)N[C@@H](CO)C(=O)N[C@@H](C)C(=O)N[C@@H](C)C(N)=O)NC(=O)[C@H](CC2CCC2)NC(=O)[C@H](CCC(N)=O)NC(=O)[C@H](CCCCN)NC(=O)[C@H](Cc2c[nH]c3ccccc23)NC(=O)[C@H](Cc2ccc(O)cc2)NC(=O)[C@H](CCC(=O)O)NC1=O)[C@@H](C)O [MP-549, AZIDE-ATSP-7041 (A8K)]	233 nM	220 A^2	2.75	4.5 µM (≈ 9.12 µg/mL)	> 50000 nM	7.105%	45.26%										
CC(=O)N[C@@H](CCCCN=[N+]=[N-])C(=O)N[C@@H](CCCCN)C(=O)NCCCCCC(=O)N[C@H](C(=O)N[C@@H](CO)C(=O)N[C@@H](Cc1ccccc1)C(=O)N[C@]1(C)CCCCCCC=CCCC[C@@](C)(C(=O)N[C@@H](CCC(=O)O)C(=O)N[C@@H](CC(N)=O)C(=O)N[C@@H](Cc2ccccc2)C(N)=O)NC(=O)[C@H](CC(C)C)NC(=O)[C@H](CC(C)C)NC(=O)[C@H](C)NC(=O)[C@H](Cc2c[nH]c3ccccc23)NC(=O)[C@H](Cc2ccc(O)cc2)NC(=O)[C@H](CCC(=O)O)NC1=O)[C@@H](C)O [MP-084] (Ac-[Lys(N3)]K[Ahx]TSF[R8]EYWALL[S5]ENF-NH2; staple 7-14)		187 A^2	2.56	2 µM (≈ 4.5 µg/mL)											74.5 nM	> 50700 nM	0.08783%
CC(=O)N[C@@H](CCCCN=[N+]=[N-])C(=O)NCCC(=O)N[C@@H](CC(C)C)C(=O)N[C@@H](C)C(=O)N[C@@H](Cc1ccccc1)C(=O)N[C@]1(C)CCCCCCC=CCCC[C@@](C)(C(=O)N[C@@H](CO)C(=O)N[C@@H](C)C(=O)N[C@@H](C)C(N)=O)NC(=O)[C@H](CC2CCC2)NC(=O)[C@H](CCC(N)=O)NC(=O)[C@H](C)NC(=O)[C@H](Cc2c[nH]c3ccccc23)NC(=O)[C@H](Cc2ccc(O)cc2)NC(=O)[C@H](CCC(=O)O)NC1=O [MP-953, AZIDE-ATSP-7041 (T2A)] (Ac-[Lys(N3)][βAla]LAF[R8]EYWAQ[Cba][S5]SAA-NH2; staple 6-13)	494 nM	221 A^2	2.93	186 µM (≈ 361 µg/mL)	> 50000 nM	11.05%	-0.16%										
CC(=O)N[C@@H](CCCCN=[N+]=[N-])C(=O)NCCC(=O)N[C@@H](CC(C)C)C(=O)N[C@@H](C)C(=O)N[C@@H](Cc1ccccc1)C(=O)N[C@]1(C)CCCCCCC=CCCC[C@@](C)(C(=O)N[C@@H](C)C(=O)N[C@@H](C)C(=O)N[C@@H](C)C(N)=O)NC(=O)[C@H](CC2CCC2)NC(=O)[C@H](CCC(N)=O)NC(=O)[C@H](C)NC(=O)[C@H](Cc2c[nH]c3ccccc23)NC(=O)[C@H](Cc2ccc(O)cc2)NC(=O)[C@H](CCC(=O)O)NC1=O [MP-963, AZIDE-ATSP-7041 (T2A,S12A)] (Ac-[Lys(N3)][βAla]LAF[R8]EYWAQ[Cba][S5]AAA-NH2; staple 6-13)	177 nM	220 A^2	2.97	100 µM (≈ 192 µg/mL)	> 50000 nM	11.69%	-0.52%										

Source: paper PMC10786919, “Design-rules for stapled peptides with in vivo activity and their application to Mdm2/X antagonists” (Nature Communications, 2024)
